Measurements from patent US20140301947A1, “METHODS TO PREDICT BINDING AFFINITY OF TSPO IMAGING AGENTS TO TSPO” (IMPERIAL INNOVATIONS LIMITED, priority 2011, published 2014).
Where “and” joins values, the source holds several entries; their conditions need not be identical. Identical values can stand only once. Like-named read-outs stand apart in the source and are kept apart here.

Key:
TSPO [1] = experiment: Competition binding with [3H]PK11195 in human brain (method of J Nucl Med 2011;52:24-32); settings: for ratio of specific signal, LAB: LAB set to 1; for LAB/HAB: ratio of Ki LAB to Ki HAB; for ratio of specific signal, HAB / ratio of specific signal, MAB: relative to LAB = 1
Source text: (§1) Thus, for example, the binding affinity of the compound may be determined in tissue derived from a HAB and in tissue derived from a LAB. An appropriate method may comprise the following steps: • obtain samples from human volunteers of tissue which contains TSPO (for example brain (for example for archive samples) or platelets (for example from blood)).
(§2) In more detail, as an example, a 48 well plate may be used, for example with 8-12 different concentrations of experimental drug for each experiment (be it the radiolabelled drug for saturation studies or the un-radiolabelled drug for competition studies). Concentrations may range from around 0.1 nM, increasing in roughly half logs (ie 0.1 nM, 0.3 nM, 1 nM, 3 nM etc) up to around 10,000 nM. 3-4 wells may be used for each concentration and the average taken to increase the precision around the estimate for each data point. The amount of tissue material required depends on how much TSPO is in the chosen tissue. For brain ˜100 micrograms of protein in each well (500 microlitres) may typically be used, giving a protein concentration of ˜200 micrograms/ml. Similar amounts may be used for platelets. For a tissue with very high TSPO levels (eg adrenal gland) a lot less protein would be needed.

TSPO [2] = biological target: T1, TSPO (Homo sapiens, UniProt P30536); experiment: as above; parameters: Ki MAB; Vinpocetine Ki, MAB; settings: mixed affinity binders, single value, human brain; read-out: Ki MAB
Source text: as §1, §2

TSPO [3] = biological target: T1, TSPO; experiment: as above; parameters: from tissue; host or cells: human brain (membrane preparation, by the cited method)
Source text: as §1, §2
Target sequence in this assay (P30536 2-169): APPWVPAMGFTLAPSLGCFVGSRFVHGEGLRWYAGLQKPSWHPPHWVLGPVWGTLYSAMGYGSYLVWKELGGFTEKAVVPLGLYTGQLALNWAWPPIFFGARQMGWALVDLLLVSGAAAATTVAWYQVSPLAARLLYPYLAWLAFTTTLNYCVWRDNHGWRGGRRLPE

TSPO [4] = biological target: T2, TSPO (Homo sapiens, UniProt P30536, T147A); experiment: as above; parameters: from tissue; host or cells: human brain (membrane preparation, by the cited method); settings: human brain
T2 sequence (P30536 2-169 T147A): as the sequence (P30536 2-169) above, with T146A counted along it
Source text: as §1, §2

TSPO [5] = biological target: T1, TSPO; experiment: Competition binding assay, unlabelled PBR28 displacing [3H]PK11195 in human platelet membranes; parameters: from tissue; settings: platelets, mean±SEM
Protocol: (§3) The study protocol, volunteer information and informed consent forms were approved by the local Research Ethics Committee. Forty-one healthy volunteers (29 male, 12 female, mean age 36.3±1.4 years) were recruited. […] Venous blood (50 ml) was drawn into EDTA-containing tubes, and separated into a lymphocyte-rich bottom layer (for genetic analysis) and platelet-rich top layer by centrifugation (180×g, 15 min, 4° C.). The platelet-rich layer (for binding assays) was re-centrifuged (1800×g, 15 min, 4° C.) to produce a platelet-containing pellet. Platelet membranes were prepared as previously described (5).
(§4) Binding data were analysed using GraphPad Prism 5.0. Single site and two site competition models were fitted using the least squares algorithm and model selection was compared using an F-test. The null hypothesis, that the data fitted a single site model, was rejected if the p value was less than 0.05. […] MABs were defined as subjects with two binding sites. Data are expressed as the mean±standard error of the mean (SEM).
Target sequence in this assay (P30536 2-169): as the sequence (P30536 2-169) above

TSPO [6] = biological target: T2, TSPO; experiment: as above; parameters: from tissue; settings: platelets, mean±SEM
Protocol: as §3, §4

TSPO [7] = biological target: T1, TSPO; parameters: from tissue; host or cells: human brain (membrane preparation, by the cited method); settings: background, reference (5); read-out: Ki values for LABs; cited from earlier work
Target sequence in this assay (P30536 2-169): as above

TSPO [8] = biological target: T2, TSPO; parameters: from tissue; host or cells: human brain (membrane preparation, by the cited method); settings: background, reference (5); read-out: Ki values for HABs; cited from earlier work
TSPO [9] = experiment: Autoradiography with [18F]FEPPA on slides previously characterised with [3H]PBR28; assay type: binding; settings: LAB slide versus HAB and MAB slides
Source text: FIG. 4: Autoradiograhpy (above) with [^18F]FEPPA (structure below). The sample slides in the figure have been previously characterised with [^3H]PBR28 and are all from HABs and MABs, but for the slide second from the left which is a LAB.

TSPO [10] = experiment: Competition radioligand binding assay with [3H]PK11195 and unlabelled GE1 in HABs and LABs; parameters: species or system human; settings: LAB mean Ki / HAB mean Ki
Protocol: (§5) FIG. 6: Competition radioligand binding assay with [3H]
(§6) Binding assays were performed as for the other compounds, as described above. The compound concentrations used were 10000 nM, 3000 nM. 1000 nM, 300 nM, 100 nM. 30 nM, 10 nM, 3 nM, 1 nM, 0.3 nM and 0.03 nM. 6 HABS and 6 LABs were used.

TSPO [11] = biological target: T1, TSPO; experiment: as above; parameters: from tissue; host or cells: human brain (membrane preparation, by the cited method)
Protocol: as §5, §6
Target sequence in this assay (P30536 2-169): as above

TSPO [12] = biological target: T2, TSPO; experiment: as above; parameters: from tissue; host or cells: human brain (membrane preparation, by the cited method)
Protocol: as §5, §6

TSPO [13] = experiment: Competition binding assay with [3H]PK11195 and unlabelled vinpocetine in human brain membranes; settings: average of HAB and LAB means; read-out: mean Ki value of HABs and LABs
Protocol: (§7) Tissue was obtained from the UK Multiple Sclerosis (MS) Tissue Bank at Imperial College. All tissue blocks obtained included only “normal appearing” tissue, without immunohistochemical evidence of demyelination or significant inflammatory infiltrate. The tissue was stored at −80° C. until use. Tissue blocks from 15 donors (5 each from HAB, MAB and LAB donors) were used. The binding affinity classification for each tissue block had been established previously using PBR28 (Owen et al. 2010).
(§8) Tissue blocks were homogenised in 10 times weight for volume (w/v) buffer ([…], 5 mM Tris base, 1 mM MgCl2, pH 7.4, 4° C.). […]
(§9) Following incubation, assays were terminated via filtration through Whatman GF/B filters, followed by 3×1 ml washes with ice-cold wash buffer (50 mM Tris Base, 1.4 mM MgCl2, pH 7.4, 4° C.). […] Scintillation fluid (4 ml/vial, Perkin Elmer Ultima Gold MV) was added and vials counted on a Perkin Elmer Tricarb 2900 liquid scintillation counter. […] Ki (nM) values were determined using GraphPad Prism 5.0 software (GraphPad Software Inc, USA).
(§10) Protein concentrations (μg protein/ml) were determined using the Bicinchoninic acid assay (BCA Kit, Sigma-Aldrich, UK) and absorption read at 562 nm.
(§11) Data were analysed using the iterative non-linear regression curve fitting software supplied with GraphPad Prism 5.0. […] Data are expressed as the mean (standard error of the mean). […]

TSPO [14] = biological target: T3, TSPO (Rattus norvegicus, UniProt P16257); settings: rat heart; cited from earlier work
T3 construct: 200 nM in the rat heart (Gulyas et al. 2005); host or cells: rat heart

[15] = test system: sodium channels, calcium channels, phosphodiesterases or NF-κB; settings: cited from earlier work
TSPO [16] = biological target: T1, TSPO; settings: high affinity interaction (<100 nM) excluded; not formally measured; cited from earlier work
Target sequence in this assay (P30536 whole entry): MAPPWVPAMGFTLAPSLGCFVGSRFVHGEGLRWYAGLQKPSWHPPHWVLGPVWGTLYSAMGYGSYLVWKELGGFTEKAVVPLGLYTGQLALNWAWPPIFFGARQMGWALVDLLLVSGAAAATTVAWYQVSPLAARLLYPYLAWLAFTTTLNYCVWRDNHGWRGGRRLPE

TSPO [17] = biological target: T1, TSPO; experiment: Competition binding assay with [3H]PK11195 and unlabelled vinpocetine in human brain membranes; parameters: Ki MAB; Vinpocetine Ki, MAB; settings: A/T subjects, mixed affinity binder, human brain, mean (SEM), read-out: Vinpocetine Ki, MAB
Protocol: as §7, §8, §9, §10, §11

TSPO [18] = biological target: T2, TSPO; experiment: as above; parameters: from tissue; host or cells: human brain (membrane preparation, by the cited method); settings: A/A subjects, high affinity binder, human brain, mean (SEM); read-out: Vinpocetine Ki, HAB
Protocol: as §7, §8, §9, §10, §11

[19] = low affinity binders, human brain, read-out: Ki LAB
[20] = high affinity binders, nM, read-out: Ki HAB
[21] = mixed affinity binders, two values given, human brain, read-out: Ki MAB, second (low affinity) value
[22] = mixed affinity binders, two values given, read-out: Ki MAB, first (high affinity) value
[23] = grouping of ligands into 3 distinct affinities, read-out: affinity for the "Low Affinity receptor"

COc1ccc(OC)c(CN(C(C)=O)c2cc(F)ccc2Oc2ccccc2)c1 [DAA1106]
ratio of specific signal, LAB (TSPO [1]): 1
LAB/HAB (TSPO [1]): 4.7
ratio of specific signal, HAB (TSPO [1]): 4.7
ratio of specific signal, MAB (TSPO [1]): 2.9
Ki (TSPO [2]): 4.8 ± 0.4 nM
Ki (TSPO [3]; [19]): 13.1 ± 1.3 nM
Ki (TSPO [4]; [20]): 2.8 ± 0.3 nM

COc1ccccc1CN(C(C)=O)c1cnccc1Oc1ccccc1 [PBR28]
Ki (TSPO [5]; LABs (2/41 subjects), read-out: Ki, single class of low affinity sites): 187 ± 19.7 nM
Ki (TSPO [5]; MABs (12/41 subjects), read-out: Ki, two-site model, low affinity site): 297 ± 43.3 nM
Ki (TSPO [6]; HABs (27/41 subjects), read-out: Ki, single class of high affinity sites): 2.17 ± 0.17 nM
Ki (TSPO [6]; MABs (12/41 subjects), read-out: Ki, two-site model, high affinity site): 2.23 ± 0.31 nM
Ki (TSPO [3]; [19]): 188 ± 7 nM
Ki (TSPO [3]; [21]): 313 nM
Ki (TSPO [4]; [20]): 3.4 ± 0.2 nM
Ki (TSPO [4]; [22]): 4 nM
Ki (TSPO [7]): 200 nM
Ki (TSPO [8]): 4 nM

CCN(Cc1ccccc1)C(=O)Cn1c(=O)n(C)c2cnc(-c3ccccc3)nc21 [Emapunil]
LAB/HAB (TSPO [1]): 12.6
Ki (TSPO [2]): 10.5 ± 0.99 nM
Ki (TSPO [3]; [23]): < 31 nM
Ki (TSPO [3]; [19]): 30.3 ± 8.7 nM
Ki (TSPO [4]; [20]): 2.4 ± 0.67 nM

CCN(CC)C(=O)Cc1c(-c2ccc(OCCCF)cc2)nc2ccc(Cl)cn12 [PBR111]
ratio of specific signal, LAB (TSPO [1]): 1
LAB/HAB (TSPO [1]): 4
ratio of specific signal, HAB (TSPO [1]): 4.0
ratio of specific signal, MAB (TSPO [1]): 2.5
Ki (TSPO [2]): 30.3 ± 4.1 nM
Ki (TSPO [3]; [23]): ~60 nM
Ki (TSPO [3]; [19]): 61.8 ± 10.7 nM
Ki (TSPO [4]; [20]): 15.6 ± 3.7 nM
Ki (TSPO [7]): 62 nM
Ki (TSPO [8]): 16 nM

CC(=O)N(Cc1ccccc1OCCF)c1cnccc1Oc1ccccc1 [FEPPA]
autoradiography signal (TSPO [9]): lack of signal for the LAB

CC(=O)N(Cc1ccccc1O[11CH3])c1cnccc1Oc1ccccc1 [PBR28]
ratio of specific signal, LAB (TSPO [1]): 1
LAB/HAB (TSPO [1]): 55
ratio of specific signal, HAB (TSPO [1]): 55.3
ratio of specific signal, MAB (TSPO [1]): 28.2

COc1ccc(OC)c(CN(C(=O)CF)c2ccccc2Oc2ccccc2)c1 [PBR06]
ratio of specific signal, LAB (TSPO [1]): 1
LAB/HAB (TSPO [1]): 17
ratio of specific signal, HAB (TSPO [1]): 17.3
ratio of specific signal, MAB (TSPO [1]): 9.2
Ki (TSPO [3]; [19]): 149 ± 46.6 nM
Ki (TSPO [3]; [21]): 176 nM
Ki (TSPO [4]; [20]): 8.6 ± 2 nM
Ki (TSPO [4]; [22]): 13.4 nM

CCN(CC)C(=O)C1CCCC2C1c1c(OC)cccc1N2CCF (stereo not shown) [GE1]
ratio of specific signal, LAB (TSPO [1]): 1
LAB/HAB (TSPO [1]): 11.8
ratio of specific signal, HAB (TSPO [1]): 11.8
ratio of specific signal, MAB (TSPO [1]): 6.4
Affinity shift (TSPO [10]): 11.8 fold
Ki (TSPO [3]; [19]): 145 ± 22.1 nM
Ki (TSPO [4]; [20]): 12.3 ± 2.1 nM
Ki (TSPO [11]; 6 LABs, racemate, read-out: Ki, mean of LABs): 145 nM
IC50 (TSPO [11]; individual LAB subjects, 5 nM [3H]PK11195): 103 nM and 108 nM and 162 nM and 135 nM and 276 nM and 170 nM
Ki (TSPO [11]; individual LAB subjects, read-out: Ki): 87.7 nM and 91.9 nM and 138 nM and 115 nM and 235 nM and 145 nM
Ki (TSPO [12]; 6 HABs, racemate, read-out: Ki, mean of HABs): 12.3 nM
IC50 (TSPO [12]; individual HAB subjects, 5 nM [3H]PK11195): 4.51 nM and 16.1 nM and 10.7 nM and 14.9 nM and 21.2 nM and 19.3 nM
Ki (TSPO [12]; individual HAB subjects, read-out: Ki): 3.85 nM and 13.8 nM and 9.12 nM and 12.7 nM and 18.1 nM and 16.5 nM

CCC(C)N(C)C(=O)c1cc2ccccc2c(-c2ccccc2Cl)n1 (stereo not shown) [PK11195, 1-(2-Chlorophenyl)-N-methyl-N-(1-methylpropyl)-3-isoquinolinecarboxamide]
difference in binding affinity to Ala147TSPO and Thr147TSPO (TSPO [1]; assay as in Owen et al (2011) J Nucl Med 52, 24-32): No significant difference in binding affinity has been detected

CCOC(=O)C1=C[C@]2(CC)CCCN3CCc4c(n1c1ccccc41)[C@@H]32 [Vinpocetine, ethyl apovincaminate]
Ki (TSPO [13]): 443 nM
reported binding affinity (TSPO [14]): 200 nM
concentrations required for these effects ([15]; phosphodiesterase inhibition, blockade of sodium and calcium channels): 1 to 44 µM
affinity for these targets (Ki) ([15]; sodium channels, calcium channels, phosphodiesterases or NF-κB): Ki in the uM range
binding affinity for the TSPO in humans (TSPO [16]): ≥ 100 nM
Ki (TSPO [17]; listed as vinpocetine): 332 nM
Ki (TSPO [17]): 332 nM
Ki (TSPO [18]): 777 nM
